Results from US9254283B2, “Therapeutic agent for migraine” (priority 2008, dated 2016).

Test system: cerebral vascular smooth muscle (basilar arteries)
Assay: Cerebral vasoconstriction effect: inhibition of adenosine-induced relaxation of isolated basilar artery rings
Conditions: dog basilar artery rings
Procedure: Dogs were anesthetized by intravenous administration of sodium pentobarbital, exsanguinated by decapitation and subjected to craniotomy. The basilar arteries were removed, and ring specimens of cerebral vascular smooth muscle measuring about 2 mm in width were prepared. Each ring specimen was fixed to an injection needle (cut into a 2-mm piece) with a silk thread. The injection needle was fixed to a holder installed in an Easy Magnus Device (Model: UC-2; Kishimoto Medical Instruments), and the specimen was allowed to stabilize for 60 minutes or more under a resting tension of 0.2 g (1.96 mN) in a 37° C. nutritive solution. […] Separately, in the same manner as in the test compound-administered group, dimethylsulfoxide alone was cumulatively added in place of the test compound (solvent-added group). The contraction of the cerebral vascular smooth muscle was then recorded on a recorder (Yokogawa Electric Corporation) from a transducer (Nihon Kohden Corporation) connected to the holder, to which the specimen was fixed, via a strain pressure amplifier (Nihon Kohden Corporation) (n=6). […] The cerebral vasoconstriction effect was determined as the percentage inhibition (%) of the adenosine-induced cerebral vascular smooth muscle relaxation, and comparison was made between the test compound-added group and the solvent-added group.

Q: For `Cc1ccc(C(=O)Nc2nc(-c3ccco3)c(C(=O)C3CCOCC3)s2)cn1` [(IIC)], which inhibition at 0.01 µM (Canis lupus familiaris, 10 nmol/L, n=6, solvent-added group 0.6±7.6%, read-out: percentage inhibition of the adenosine-induced cerebral vascular smooth muscle relaxation) is on record?
A: Its inhibition at 0.01 µM is 97.4 ± 1.8%.

Q: `CC(C)(O)CCN1CCN(c2cc3nc(-c4ccco4)nn3c(N)n2)CC1` [Compound (IB)] was tested. Which “suppressing effect on adenosine-induced cerebral vascular smooth muscle relaxation (in words)” value (versus solvent-added group) did it give?
A: Its value is “confirmed”.
